From patent US9102591B2, “Benzamides” (H. Lundbeck A/S, priority 2012, dated 2015)

Molecular target: P2X7 receptor (Homo sapiens (Human), UniProt Q99572)
Assay: P2X7 FLIPR assay (BzATP-stimulated calcium fluorescence, antagonist IC50)
Type: cell-based
Protocol: This example illustrates representative assays for use in evaluating the test compounds for antagonist activity. Compounds of the present invention were tested in vitro for their ability to act as antagonists to the P2X7receptor. […]
Cells were plated to cell density of approximately 15,000 cells/well in 384-well assay plates (50 μl/well) with 1.5% low serum media (DMEM, 1.5% FBS, 1% L-glut (2 mM), 10 mM HUES, 1% P/S). Cells were plated 24 hours prior to assay. Cells expressing human, rat or mouse P2X7 receptor were assayed in the following manner.
Fluo-4 NW dye mix (Molecular Probes, Inc., Eugene, Oreg., USA) was prepared in buffer (see manufacturer's instructions). Cell plates were removed from the 37° C. incubator, the media discarded and then 30 μL of dye was added to each well. Plates were placed in the 37° C., non-CO2 incubator for 30 minutes and then room temperature for 30 minutes.
Compound mixtures (A) were added to assay plates containing cells and placed at room temperature for 30 minutes, then BzATP (B) was added. Fluorescence was read using the Tetra FLIPR® (Molecular Devices, Inc., Sunnyvale, Calif., USA) and IC50 values were calculated by standard methods to determine antagonist activity.

Chain of P2X7 receptor (Q99572 whole entry): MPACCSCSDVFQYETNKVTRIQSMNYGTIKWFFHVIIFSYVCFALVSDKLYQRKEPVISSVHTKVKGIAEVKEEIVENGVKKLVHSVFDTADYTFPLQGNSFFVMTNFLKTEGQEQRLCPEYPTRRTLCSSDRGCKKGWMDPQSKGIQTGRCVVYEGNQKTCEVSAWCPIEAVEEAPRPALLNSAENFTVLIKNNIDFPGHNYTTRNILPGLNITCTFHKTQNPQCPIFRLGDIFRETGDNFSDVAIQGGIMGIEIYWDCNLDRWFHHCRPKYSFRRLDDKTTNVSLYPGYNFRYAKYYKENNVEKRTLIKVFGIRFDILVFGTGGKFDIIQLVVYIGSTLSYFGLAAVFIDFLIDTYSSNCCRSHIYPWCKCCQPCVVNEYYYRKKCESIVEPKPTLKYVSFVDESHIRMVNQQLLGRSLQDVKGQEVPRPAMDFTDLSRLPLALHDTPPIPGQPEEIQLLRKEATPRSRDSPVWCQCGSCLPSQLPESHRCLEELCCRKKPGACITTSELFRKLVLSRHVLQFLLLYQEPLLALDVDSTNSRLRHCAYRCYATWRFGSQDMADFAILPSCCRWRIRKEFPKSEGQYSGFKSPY

Row | SMILES | IC50
1 | Cc1ccccc1C(=O)NCC1(c2ccc(Cl)cc2)CCN(C)CC1 [N-[4-(4-Chloro-phenyl)-1-methyl-piperidin-4-ylmethyl]-2-methyl-benzamide] | 60 nM
2 | O=C(NCC(c1cnc(C(F)(F)F)nc1)C1CCC(F)(F)CC1)c1ccccc1Cl (single isomer, unassigned; (+)) [(+)2-chloro-N-[2-(4,4-difluorocyclohexyl)-2-[2-(trifluoromet] [(+)2-chloro-N-[2-(4,4-difluorocyclohexyl)-2-[2-(trifluoromethyl)pyrimidin-5-yl]ethyl]benzamide] | 32 nM
3 | O=C(NCC1(c2ccc(F)nc2)CCC(F)(F)CC1)c1cc(F)ccc1F [N-((4,4-difluoro-1-(6-fluoropyridin-3-yl)cyclohexyl)methyl)-2,5-difluorobenzamide] | 1500 nM
4 | COCCC(CNC(=O)c1cccc(Cl)c1Cl)c1cnc(C(F)(F)F)nc1 (centres unmarked) [2,3-dichloro-N-[4-methoxy-2-[2-(trifluoromethyl)pyrimidin-5-yl]butyl]benzamide] | 2200 nM
5 | O=C(NCC(c1ccc(Cl)cc1)C1CCOCC1)c1ccccc1Cl (centres unmarked) [2-chloro-N-[2-(4-chlorophenyl)-2-tetrahydropyran-4-yl-ethyl]benzamide] | 14 nM
6 | Cc1ccccc1C(=O)NCC1(c2ccc(Cl)cc2)CCOCC1 [N-[4-(4-Chloro-phenyl)-tetrahydro-pyran-4-ylmethyl]-2-methyl-benzamide] | 2100 nM
7 | O=C(NCC(c1ccc(F)cc1)c1cnc(C(F)(F)F)nc1)c1ccccc1Cl (single isomer, unassigned; (-)) [(−)2-chloro-N-[2-(4-fluorophenyl)-2-[2-(trifluoromethyl)pyri] [(−)2-chloro-N-[2-(4-fluorophenyl)-2-[2-(trifluoromethyl)pyrimidin-5-yl]ethyl]benzamide] | 2 nM
8 | O=C(NCC(CC1CC1)c1cnc(C(F)(F)F)nc1)c1cccc(Cl)c1Cl (centres unmarked) [2,3-dichloro-N-[3-cyclopropyl-2-[2-(trifluoromethyl)pyrimidi] [2,3-dichloro-N-[3-cyclopropyl-2-[2-(trifluoromethyl)pyrimidin-5-yl]propyl]benzamide] | 0.88 nM
9 | O=C(NCC1(c2ccc(F)nc2)CCC(F)(F)CC1)c1cccc(Cl)c1F [3-chloro-N-((4,4-difluoro-1-(6-fluoropyridin-3-yl)cyclohexyl)methyl)-2-fluorobenzamide] | 11 nM
10 | O=C(NCC(CC1CC1)c1cnc(C(F)(F)F)nc1)c1cccc(Cl)c1Cl (single isomer, unassigned; (+)) [(+)2,3-dichloro-N-[3-cyclopropyl-2-[2-(trifluoromethyl)pyrim] [(+)2,3-dichloro-N-[3-cyclopropyl-2-[2-(trifluoromethyl)pyrimidin-5-yl]propyl]benzamide] | 3.9 nM
11 | O=C(NCC(CC1(C(F)(F)F)CC1)c1ccc(C2CC2)nc1)c1cccc(Cl)c1Cl (centres unmarked) [2,3-dichloro-N-[2-(6-cyclopropyl-3-pyridyl)-3-[1-(trifluoromethyl)cyclopropyl]propyl]benzamide] | 15 nM
12 | O=C(NCC1(c2cccnc2)CCCC1)c1cccc(Cl)c1Cl [2,3-Dichloro-N-(1-pyridin-3-yl-cyclopentylmethyl)-benzamide] | 2200 nM
13 | O=C(NCC(CC1(C(F)(F)F)CC1)c1ccc(C(F)(F)F)nc1)c1ccccc1Cl (centres unmarked) [2-chloro-N-[3-[1-(trifluoromethyl)cyclopropyl]-2-[6-(trifluo] [2-chloro-N-[3-[1-(trifluoromethyl)cyclopropyl]-2-[6-(trifluoromethyl)-3-pyridyl]propyl]benzamide] | 2.1 nM
14 | O=C(NCC1(c2ccc(C3CC3)nc2)CCC(F)(F)CC1)c1cccc(Cl)c1Cl [2,3-dichloro-N-((1-(6-cyclopropylpyridin-3-yl)-4,4-difluorocyclohexyl)methyl)benzamide] | 1.3 nM
15 | Cc1ncc(C(CNC(=O)c2ccccc2Cl)C2CCOCC2)cn1 (single isomer, unassigned; (-)) [(−)2-chloro-N-[2-(2-methylpyrimidin-5-yl)-2-tetrahydropyran-] [(−)2-chloro-N-[2-(2-methylpyrimidin-5-yl)-2-tetrahydropyran-4-yl-ethyl]benzamide] | 570 nM
16 | O=C(NCC(c1ccncc1)c1cnc(C(F)(F)F)nc1)c1ccccc1Cl (centres unmarked) [2-chloro-N-[2-(4-pyridyl)-2-[2-(trifluoromethyl)pyrimidin-5-yl]ethyl]benzamide] | 30 nM

Row | SMILES | IC50
17 | Cc1ccc(F)cc1C(=O)NCC1(c2ccc(C(F)(F)F)nc2)CCC(F)(F)CC1 [N-((4,4-difluoro-1-(6-(trifluoromethyl)pyridin-3-yl)cyclohexyl)methyl)-5-fluoro-2-methylbenzamide] | 9.1 nM
18 | Cc1ncc(C(CNC(=O)c2c(F)cccc2Cl)C2CCC(F)(F)CC2)cn1 (centres unmarked) [2-chloro-N-[2-(4,4-difluorocyclohexyl)-2-(2-methylpyrimidin-5-yl)ethyl]-6-fluoro-benzamide] | 150 nM
19 | O=C(NCC(c1cnc(C(F)(F)F)nc1)C1CCC(F)(F)CC1)c1c(F)cccc1Cl (single isomer, unassigned; (+)) [(+)2-chloro-N-[2-(4,4-difluorocyclohexyl)-2-[2-(trfluorometh] [(+)2-chloro-N-[2-(4,4-difluorocyclohexyl)-2-[2-(trfluoromethyl)pyrimidin-5-yl]ethyl]-6-fluoro-benzamide] | 75 nM
20 | O=C(NCC(c1cnc(C(F)(F)F)nc1)C1CCOCC1)c1ccccc1Cl (single isomer, unassigned; (-)) [(−)2-chloro-N-[2-tetrahydropyran-4-yl-2-[2-(trifluoromethyl)] [(−)2-chloro-N-[2-tetrahydropyran-4-yl-2-[2-(trifluoromethyl)pyrimidin-5-yl]ethyl]benzamide] | 56 nM
21 | CC(NC(=O)c1cccc(Cl)c1Cl)C1(c2ccc(Br)nc2)CCC(F)(F)CC1 (centres unmarked) [N-(1-(1-(6-bromopyridin-3-yl)-4,4-difluorocyclohexyl)ethyl)-2,3-dichlorobenzamide] | 43 nM
22 | O=C(NCC(CC1CC1)c1ccc(C(F)(F)F)nc1)c1ccc(F)cc1Cl (centres unmarked) [2-chloro-N-(3-cyclopropyl-2-(6-(trifluoromethyl)pyridin-3-yl)propyl)-4-fluorobenzamide] | 310 nM
23 | Cc1ncc(C(CNC(=O)c2cccc(Cl)c2Cl)CC2(C(F)(F)F)CC2)cn1 (centres unmarked) [2,3-dichloro-N-[2-(2-methylpyrimidin-5-yl)-3-[1-(trifluorome] [2,3-dichloro-N-[2-(2-methylpyrimidin-5-yl)-3-[1-(trifluoromethyl)cyclopropyl]propyl]benzamide] | 7.1 nM
24 | O=C(NCC(CC1CC1)c1cnc(C(F)(F)F)nc1)c1ccccc1Cl (centres unmarked) [2-chloro-N-(3-cyclopropyl-2-(2-(trifluoromethyl)pyrimidin-5-] [2-chloro-N-(3-cyclopropyl-2-(2-(trifluoromethyl)pyrimidin-5-yl)propyl)benzamide] | 13 nM
25 | O=C(NCC(c1ccncc1)c1ccc(C(F)(F)F)nc1)c1ccccc1Cl (centres unmarked) [2-chloro-N-[2-(4-pyridyl)-2-[6-(trifluoromethyl)-3-pyridyl]ethyl]benzamide] | 11 nM
26 | CC(CNC(=O)c1ccccc1Cl)(CC1CC1)c1cnc(C(F)(F)F)nc1 (centres unmarked) [2-chloro-N-[3-cyclopropyl-2-methyl-2-[2-(trifluoromethyl)pyr] [2-chloro-N-[3-cyclopropyl-2-methyl-2-[2-(trifluoromethyl)pyrimidin-5-yl]propyl]benzamide] | 21 nM
27 | O=C(NCC(CC1(C(F)(F)F)CC1)c1ccc(C(F)(F)F)nc1)c1cccc(Cl)c1Cl (single isomer, unassigned; (-)) [(−)2,3-dichloro-N-[3-[1-(trifluoromethyl)cyclopropyl]-2-[6-(] [(−)2,3-dichloro-N-[3-[1-(trifluoromethyl)cyclopropyl]-2-[6-(trifluoromethyl)-3-pyridyl]propyl]benzamide] | 25 nM
28 | CS(=O)(=O)c1ccc(Cl)c(C(=O)NCC(CC2CC2)c2ccc(C(F)(F)F)nc2)c1 (single isomer, unassigned; (+)) [(+)2-chloro-N-[3-cyclopropyl-2-[6-(trifluoromethyl)-3-pyridy] [(+)2-chloro-N-[3-cyclopropyl-2-[6-(trifluoromethyl)-3-pyridyl]propyl]-5-methylsulfonyl-benzamide] | 560 nM
29 | O=C(NCC(CC1CC1)c1cnc(C(F)F)nc1)c1cccc(Cl)c1Cl (single isomer, unassigned; (+)) [(+)2,3-dichloro-N-[3-cyclopropyl-2-[2-(difluoromethyl)pyrimi] [(+)2,3-dichloro-N-[3-cyclopropyl-2-[2-(difluoromethyl)pyrimidin-5-yl]propyl]benzamide] | 23 nM
30 | O=C(NCC(CC1CC1)c1cnc(C(F)(F)F)nc1)c1ccccc1Cl (single isomer, unassigned; (-)) [(−)2-chloro-N-[3-cyclopropyl-2-[2-(trifluoromethyl)pyrimidin] [(−)2-chloro-N-[3-cyclopropyl-2-[2-(trifluoromethyl)pyrimidin-5-yl]propyl]benzamide] | 3.2 nM
31 | O=C(NCC1(c2ccc(F)nc2)CCC(F)(F)CC1)c1cccc(F)c1Cl [2-chloro-N-((4,4-difluoro-1-(6-fluoropyridin-3-yl)cyclohexyl)methyl)-3-fluorobenzamide] | 5.3 nM
32 | Cc1ncc(C(CNC(=O)c2c(Cl)cccc2Cl)CC2CC2)cn1 (single isomer, unassigned; (+)) [(+)2,6-dichloro-N-[3-cyclopropyl-2-(2-methylpyrimidin-5-yl)p] [(+)2,6-dichloro-N-[3-cyclopropyl-2-(2-methylpyrimidin-5-yl)propyl]benzamide] | 220 nM
